# Measured values published in patent US20250154172A1, “PRMT5 INHIBITORS AND USES THEREOF” (Gilead Sciences, Inc., priority 2023, published 2025).
# Experiment: Hepatocyte stability assay
# Assay type: in vitro ADME
# Settings: Rat hepatocytes; 1 μM substrate
# Description: BioreclamationIVT (Baltimore, MD) provided the cryopreserved hepatocytes, hepatocyte thawing (HT) medium, and Krebs-Henseleit buffer (KHB) medium. The stock solution concentration was 1 M in DMSO and was then diluted further in acetonitrile/water (1:1 v/v). All other chemicals were purchased from Sigma-Aldrich (St. Louis, MO) or Thermo Fisher Scientific (Waltham, MA).
# The quench solution used to stop reactions in the hepatocyte incubations was comprised of 100% (v/v) acetonitrile. Internal Standard/Quench (IS/Q) solution used to stop reactions with the positive control also contained 200 nM Labetalol.
# Metabolic Stability in Cryopreserved Hepatocytes: Test compounds, or the positive control metabolic substrate, was incubated in suspensions of cryopreserved hepatocytes at a final concentration of 1 μM. Vials containing cryopreserved hepatocytes were removed from liquid nitrogen and immediately immersed in a 37° C. water bath. The vials were swirled gently until the contents had thawed. […] The viabilities of all cell preparations were >85%, assessed by Trypan blue dye exclusion.
# For incubations, aliquots of hepatocyte suspension (250 μL containing a cell concentration of 2×10^6 cells/mL) were added to 250 μL of 2 μM substrate (test compound or positive control) in supplemented KHB in duplicate wells in a 24-well plate. […] Samples were injected and analyzed with methods described below. […]
row,Compound,Predicted Hepatocyte CL [mL/min/kg]
1,"Nc1nc2cnc(C(=O)N3CCOC[C@@H]3c3ccc(C(F)(F)F)cc3)cc2c2c1COC2 [AMG193, reference compound]",41
2,"Nc1nc2cnc(C(=O)N3CCC[C@@H]4Oc5cc(C(F)(F)F)cc(F)c5[C@@H]43)cc2c2c1COC2 [Example Ca-47, (4-amino-1,3-dihydrofuro[3,4-c][1,7]naphthyridin-8-yl)((4aS,9bS)-9-fluoro-7-(trifluoromethyl)-3,4,4a,9b-tetrahydrobenzofuro[3,2-b]pyridin-1(2H)-yl)methanone]",42.2
